Legend:
Experiment in all cases: Dundee kinase panel
Format in all cases: biochemical
Conditions in all cases: for remaining activity at 1 µM: read-out: residual activity
CHK2 = molecular target: T1, CHK2 (Homo sapiens, UniProt O96017)
T1 construct: lines 1-140) and Reaction Biology
Protocol: (§1) Compounds were screened at 1 μM. For key hits, pIC50 values were then determined by HTRF as above. […] Stability in mouse and human liver microsomes was determined by Cyprotex.

CDK2-Cyclin A = molecular target: T2, CDK2-Cyclin A (Homo sapiens, UniProt P24941)
T2 construct: lines 1-140) and Reaction Biology
Protocol: as §1

IGF-1R = molecular target: T3, IGF-1R (Homo sapiens, UniProt P08069)
T3 construct: lines 1-140) and Reaction Biology
T3 sequence (P08069 31-1367): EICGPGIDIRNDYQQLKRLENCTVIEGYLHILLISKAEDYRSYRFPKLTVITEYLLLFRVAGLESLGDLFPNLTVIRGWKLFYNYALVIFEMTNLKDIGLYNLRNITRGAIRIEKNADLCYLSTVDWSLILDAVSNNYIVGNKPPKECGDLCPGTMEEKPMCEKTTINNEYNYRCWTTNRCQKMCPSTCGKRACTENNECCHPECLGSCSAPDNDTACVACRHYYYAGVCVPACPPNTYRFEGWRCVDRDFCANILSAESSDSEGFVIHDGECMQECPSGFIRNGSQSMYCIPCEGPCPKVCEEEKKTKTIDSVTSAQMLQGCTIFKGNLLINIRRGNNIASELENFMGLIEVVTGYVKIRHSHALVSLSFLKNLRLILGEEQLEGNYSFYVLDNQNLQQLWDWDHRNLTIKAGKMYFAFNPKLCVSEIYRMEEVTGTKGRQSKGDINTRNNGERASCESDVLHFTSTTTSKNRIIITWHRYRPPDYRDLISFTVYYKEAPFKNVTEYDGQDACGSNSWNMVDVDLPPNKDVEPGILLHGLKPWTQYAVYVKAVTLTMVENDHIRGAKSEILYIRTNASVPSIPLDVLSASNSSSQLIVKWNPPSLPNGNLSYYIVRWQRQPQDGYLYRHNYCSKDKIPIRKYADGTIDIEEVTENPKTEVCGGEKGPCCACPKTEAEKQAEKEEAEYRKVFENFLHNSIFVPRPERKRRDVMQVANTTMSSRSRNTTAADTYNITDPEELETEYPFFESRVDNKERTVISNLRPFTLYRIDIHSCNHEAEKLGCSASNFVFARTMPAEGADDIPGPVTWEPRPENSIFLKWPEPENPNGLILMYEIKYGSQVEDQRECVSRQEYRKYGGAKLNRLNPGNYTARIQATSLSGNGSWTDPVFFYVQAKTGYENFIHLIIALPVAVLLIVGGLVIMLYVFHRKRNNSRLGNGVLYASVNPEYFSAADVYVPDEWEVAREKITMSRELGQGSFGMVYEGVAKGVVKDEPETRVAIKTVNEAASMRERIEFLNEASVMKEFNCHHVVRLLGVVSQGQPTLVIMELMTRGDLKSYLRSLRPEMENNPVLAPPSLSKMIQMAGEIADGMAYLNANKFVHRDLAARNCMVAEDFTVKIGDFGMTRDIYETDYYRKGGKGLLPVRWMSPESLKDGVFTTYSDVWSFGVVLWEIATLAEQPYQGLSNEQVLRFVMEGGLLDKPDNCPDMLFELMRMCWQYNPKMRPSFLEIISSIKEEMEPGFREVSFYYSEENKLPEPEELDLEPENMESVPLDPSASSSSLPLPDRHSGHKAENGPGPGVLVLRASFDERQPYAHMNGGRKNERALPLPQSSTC
Protocol: as §1

TBK1 = molecular target: T4, TBK1 (Homo sapiens, UniProt Q9UHD2)
T4 construct: lines 1-140) and Reaction Biology
T4 sequence (Q9UHD2 1-729): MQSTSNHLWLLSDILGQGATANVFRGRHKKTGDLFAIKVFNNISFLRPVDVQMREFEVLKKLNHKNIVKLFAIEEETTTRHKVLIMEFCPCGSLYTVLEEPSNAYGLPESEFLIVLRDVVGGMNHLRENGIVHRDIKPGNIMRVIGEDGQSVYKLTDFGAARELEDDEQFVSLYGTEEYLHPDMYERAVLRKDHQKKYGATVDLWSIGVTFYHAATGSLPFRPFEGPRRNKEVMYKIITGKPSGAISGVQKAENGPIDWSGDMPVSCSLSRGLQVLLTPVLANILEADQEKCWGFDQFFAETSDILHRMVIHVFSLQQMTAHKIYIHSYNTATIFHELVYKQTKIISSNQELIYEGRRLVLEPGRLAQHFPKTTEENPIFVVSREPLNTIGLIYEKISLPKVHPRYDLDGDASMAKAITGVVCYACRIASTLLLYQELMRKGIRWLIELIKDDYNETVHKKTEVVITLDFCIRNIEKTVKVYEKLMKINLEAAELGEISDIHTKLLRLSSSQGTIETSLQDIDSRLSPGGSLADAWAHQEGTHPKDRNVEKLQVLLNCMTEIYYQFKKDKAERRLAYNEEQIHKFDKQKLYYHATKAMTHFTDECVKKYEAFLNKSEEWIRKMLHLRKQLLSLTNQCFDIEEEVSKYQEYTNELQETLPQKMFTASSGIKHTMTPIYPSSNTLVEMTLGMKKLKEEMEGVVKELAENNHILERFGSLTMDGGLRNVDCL
Protocol: as §1

TIE2 = molecular target: T5, TIE2 (Homo sapiens, UniProt Q02763)
T5 construct: lines 1-140) and Reaction Biology
T5 sequence (Q02763 23-1124): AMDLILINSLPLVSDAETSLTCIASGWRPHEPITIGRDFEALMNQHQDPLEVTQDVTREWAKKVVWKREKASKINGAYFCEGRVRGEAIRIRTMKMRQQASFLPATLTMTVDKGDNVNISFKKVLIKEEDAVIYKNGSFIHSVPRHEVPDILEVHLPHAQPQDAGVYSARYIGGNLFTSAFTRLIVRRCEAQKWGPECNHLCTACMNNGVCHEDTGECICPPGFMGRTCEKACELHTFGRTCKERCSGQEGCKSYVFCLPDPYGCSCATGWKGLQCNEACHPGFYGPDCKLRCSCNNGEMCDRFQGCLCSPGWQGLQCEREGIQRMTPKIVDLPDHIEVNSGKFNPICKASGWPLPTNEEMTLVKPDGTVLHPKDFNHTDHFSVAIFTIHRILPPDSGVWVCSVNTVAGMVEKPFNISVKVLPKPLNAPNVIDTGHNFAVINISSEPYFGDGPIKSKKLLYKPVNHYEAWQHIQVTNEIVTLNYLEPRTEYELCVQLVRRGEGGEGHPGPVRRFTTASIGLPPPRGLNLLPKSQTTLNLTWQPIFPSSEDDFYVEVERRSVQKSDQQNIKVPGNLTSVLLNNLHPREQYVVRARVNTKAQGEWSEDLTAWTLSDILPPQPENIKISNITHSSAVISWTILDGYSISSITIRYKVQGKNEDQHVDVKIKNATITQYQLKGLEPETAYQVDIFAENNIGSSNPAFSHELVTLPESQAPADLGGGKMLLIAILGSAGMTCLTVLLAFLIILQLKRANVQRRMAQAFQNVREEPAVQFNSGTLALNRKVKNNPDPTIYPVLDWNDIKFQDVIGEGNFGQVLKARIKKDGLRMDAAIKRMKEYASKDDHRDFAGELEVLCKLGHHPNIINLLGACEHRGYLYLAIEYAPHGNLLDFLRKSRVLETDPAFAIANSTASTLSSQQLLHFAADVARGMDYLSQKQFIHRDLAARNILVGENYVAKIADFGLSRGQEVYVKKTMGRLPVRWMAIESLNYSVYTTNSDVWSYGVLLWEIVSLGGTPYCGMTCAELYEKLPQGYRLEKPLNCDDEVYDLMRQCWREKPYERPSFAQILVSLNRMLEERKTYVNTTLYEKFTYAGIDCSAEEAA
Protocol: as §1

IRAK4 = molecular target: T6, IRAK4 (Homo sapiens, UniProt Q9NWZ3)
T6 construct: lines 1-140) and Reaction Biology
T6 sequence (Q9NWZ3 1-460): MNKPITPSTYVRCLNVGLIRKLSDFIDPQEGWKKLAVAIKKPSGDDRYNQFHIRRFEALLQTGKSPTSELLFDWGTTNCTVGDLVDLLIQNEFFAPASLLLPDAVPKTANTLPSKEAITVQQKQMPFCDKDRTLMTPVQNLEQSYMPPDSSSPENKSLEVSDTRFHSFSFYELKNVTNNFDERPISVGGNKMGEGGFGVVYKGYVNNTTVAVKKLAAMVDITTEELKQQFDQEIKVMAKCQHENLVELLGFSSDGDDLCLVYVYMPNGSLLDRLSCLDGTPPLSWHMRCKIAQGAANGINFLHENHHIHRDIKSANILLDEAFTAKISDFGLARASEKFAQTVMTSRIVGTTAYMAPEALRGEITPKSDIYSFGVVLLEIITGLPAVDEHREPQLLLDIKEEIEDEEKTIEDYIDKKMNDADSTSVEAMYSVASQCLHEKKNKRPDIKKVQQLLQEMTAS
Protocol: as §1

IRR = molecular target: T7, IRR (Homo sapiens, UniProt P14616)
T7 construct: lines 1-140) and Reaction Biology
T7 sequence (P14616 27-1297): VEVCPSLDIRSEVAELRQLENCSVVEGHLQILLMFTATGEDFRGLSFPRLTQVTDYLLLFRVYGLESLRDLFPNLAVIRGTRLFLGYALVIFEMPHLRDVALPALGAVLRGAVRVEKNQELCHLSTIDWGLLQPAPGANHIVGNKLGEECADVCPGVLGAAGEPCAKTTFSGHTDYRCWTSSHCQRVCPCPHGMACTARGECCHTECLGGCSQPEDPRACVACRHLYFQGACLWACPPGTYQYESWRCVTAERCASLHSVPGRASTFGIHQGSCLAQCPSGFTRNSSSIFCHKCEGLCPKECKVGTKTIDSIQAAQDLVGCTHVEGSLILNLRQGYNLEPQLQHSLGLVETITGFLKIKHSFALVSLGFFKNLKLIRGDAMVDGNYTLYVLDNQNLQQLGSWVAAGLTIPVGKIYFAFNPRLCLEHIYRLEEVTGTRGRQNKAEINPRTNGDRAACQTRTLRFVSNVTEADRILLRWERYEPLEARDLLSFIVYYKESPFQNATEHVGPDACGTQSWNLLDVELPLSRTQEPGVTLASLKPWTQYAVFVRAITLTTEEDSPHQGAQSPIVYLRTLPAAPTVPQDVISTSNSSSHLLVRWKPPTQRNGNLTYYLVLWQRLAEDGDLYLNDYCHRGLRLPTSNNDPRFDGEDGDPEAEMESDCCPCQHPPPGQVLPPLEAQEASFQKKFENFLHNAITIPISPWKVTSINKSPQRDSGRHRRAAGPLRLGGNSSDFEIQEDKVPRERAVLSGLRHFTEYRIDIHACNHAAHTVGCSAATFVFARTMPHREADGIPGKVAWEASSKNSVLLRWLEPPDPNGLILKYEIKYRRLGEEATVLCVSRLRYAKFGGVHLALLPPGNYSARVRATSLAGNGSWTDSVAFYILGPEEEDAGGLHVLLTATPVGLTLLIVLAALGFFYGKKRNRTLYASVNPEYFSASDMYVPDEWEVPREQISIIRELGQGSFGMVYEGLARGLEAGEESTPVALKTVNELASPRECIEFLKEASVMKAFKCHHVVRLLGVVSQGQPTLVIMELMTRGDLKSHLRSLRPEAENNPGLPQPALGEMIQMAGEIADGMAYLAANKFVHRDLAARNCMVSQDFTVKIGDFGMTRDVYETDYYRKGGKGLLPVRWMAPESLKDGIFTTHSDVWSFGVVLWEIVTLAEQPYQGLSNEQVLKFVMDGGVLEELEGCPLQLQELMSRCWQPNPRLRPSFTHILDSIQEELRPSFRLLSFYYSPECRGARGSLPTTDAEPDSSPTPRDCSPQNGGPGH
Protocol: as §1

Aurora A = molecular target: T8, Aurora A (Homo sapiens, UniProt O14965)
T8 construct: lines 1-140) and Reaction Biology
T8 sequence (O14965 1-403): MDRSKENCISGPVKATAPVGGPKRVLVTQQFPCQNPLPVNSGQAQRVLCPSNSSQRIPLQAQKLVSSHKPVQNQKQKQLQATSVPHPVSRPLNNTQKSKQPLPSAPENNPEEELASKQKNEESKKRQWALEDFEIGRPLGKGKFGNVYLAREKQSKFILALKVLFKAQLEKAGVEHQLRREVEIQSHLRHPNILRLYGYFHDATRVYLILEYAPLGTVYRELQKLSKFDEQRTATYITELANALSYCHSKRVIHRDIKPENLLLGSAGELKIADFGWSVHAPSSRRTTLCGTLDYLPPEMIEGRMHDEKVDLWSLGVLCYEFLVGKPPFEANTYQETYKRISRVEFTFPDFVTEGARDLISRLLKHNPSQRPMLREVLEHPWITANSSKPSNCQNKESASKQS
Protocol: as §1

EPH-B3 = molecular target: T9, EPH-B3 (Homo sapiens, UniProt P54753)
T9 construct: lines 1-140) and Reaction Biology
T9 sequence (P54753 34-998): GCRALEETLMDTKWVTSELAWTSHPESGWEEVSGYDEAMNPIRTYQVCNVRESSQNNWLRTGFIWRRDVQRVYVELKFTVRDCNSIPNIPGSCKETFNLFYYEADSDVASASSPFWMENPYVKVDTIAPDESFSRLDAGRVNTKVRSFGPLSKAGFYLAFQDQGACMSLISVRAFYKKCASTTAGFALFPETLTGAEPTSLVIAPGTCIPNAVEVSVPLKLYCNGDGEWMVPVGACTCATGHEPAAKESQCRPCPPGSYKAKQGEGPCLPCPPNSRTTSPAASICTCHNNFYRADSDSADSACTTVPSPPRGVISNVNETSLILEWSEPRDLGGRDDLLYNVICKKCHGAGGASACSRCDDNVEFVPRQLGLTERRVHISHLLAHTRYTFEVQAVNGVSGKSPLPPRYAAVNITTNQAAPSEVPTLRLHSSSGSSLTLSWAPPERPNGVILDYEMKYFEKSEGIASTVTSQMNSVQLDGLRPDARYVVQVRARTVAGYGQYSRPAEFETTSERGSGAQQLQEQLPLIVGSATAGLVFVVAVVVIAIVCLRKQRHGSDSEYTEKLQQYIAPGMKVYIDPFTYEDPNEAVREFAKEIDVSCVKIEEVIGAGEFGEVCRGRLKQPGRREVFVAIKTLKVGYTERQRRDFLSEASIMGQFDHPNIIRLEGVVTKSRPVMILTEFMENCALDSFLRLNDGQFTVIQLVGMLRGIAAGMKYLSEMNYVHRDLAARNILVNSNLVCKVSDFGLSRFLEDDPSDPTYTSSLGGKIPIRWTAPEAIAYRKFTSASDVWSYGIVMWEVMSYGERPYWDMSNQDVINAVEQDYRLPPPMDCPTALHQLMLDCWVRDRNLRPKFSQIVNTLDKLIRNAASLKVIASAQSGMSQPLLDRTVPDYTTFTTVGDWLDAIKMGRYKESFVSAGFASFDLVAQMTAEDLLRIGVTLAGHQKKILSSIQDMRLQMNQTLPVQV
Protocol: as §1

T1 sequence (O96017 whole entry): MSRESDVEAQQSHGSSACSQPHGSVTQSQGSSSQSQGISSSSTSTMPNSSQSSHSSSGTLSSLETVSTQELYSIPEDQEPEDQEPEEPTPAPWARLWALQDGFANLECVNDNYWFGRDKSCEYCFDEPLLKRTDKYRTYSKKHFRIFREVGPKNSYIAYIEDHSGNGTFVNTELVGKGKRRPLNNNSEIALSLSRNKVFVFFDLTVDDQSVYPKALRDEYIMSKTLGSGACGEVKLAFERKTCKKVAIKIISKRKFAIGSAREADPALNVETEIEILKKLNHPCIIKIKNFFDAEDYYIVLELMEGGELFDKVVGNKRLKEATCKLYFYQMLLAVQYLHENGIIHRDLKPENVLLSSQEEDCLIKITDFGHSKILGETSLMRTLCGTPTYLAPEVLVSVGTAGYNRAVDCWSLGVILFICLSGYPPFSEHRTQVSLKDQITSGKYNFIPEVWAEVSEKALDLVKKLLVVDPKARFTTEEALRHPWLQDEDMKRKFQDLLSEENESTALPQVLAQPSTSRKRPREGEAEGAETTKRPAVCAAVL

Compound | remaining activity at 1 µM (CHK2) [%] | remaining activity at 1 µM (CDK2-Cyclin A) [%] | remaining activity at 1 µM (IGF-1R) [%] | remaining activity at 1 µM (TBK1) [%] | remaining activity at 1 µM (TIE2) [%] | remaining activity at 1 µM (IRAK4) [%] | remaining activity at 1 µM (IRR) [%] | remaining activity at 1 µM (Aurora A) [%] | remaining activity at 1 µM (EPH-B3) [%] | residual activity (CHK2; 1 μM) [%] | residual activity (CDK2-Cyclin A; 1 μM) [%] | residual activity (IGF-1R; 1 μM) [%] | residual activity (TBK1; 1 μM) [%] | residual activity (TIE2; 1 μM) [%] | residual activity (IRAK4; 1 μM) [%] | residual activity (EPH-B3; 1 μM) [%] | residual activity (IRR; 1 μM) [%] | residual activity (Aurora A; 1 μM) [%]
O=C1Cc2c([nH]c3ccc(Br)cc23)-c2ccccc2N1 [Kenpaullone] | 25 | 93 | 74 | 90 | 98 | 65 | 89 | 96 | – | – | – | – | – | – | – | – | – | –
O=C1Nc2ccc(I)cc2/C1=C/c1cc(Br)c(O)c(Br)c1 [GW5074] | 46 | 111 | 88 | 83 | 98 | 78 | 61 | 79 | 94 | – | – | – | – | – | – | – | – | –
Nc1ncc(C(=O)NC2CN(C(=O)C3CC3)C2)c2ccc(-c3cccc(F)c3)nc12 [GNE-495] | – | – | – | – | – | – | – | – | – | 102 | 55 | 85 | 104 | 86 | 75 | 87 | 83 | 73
Oc1ncnc2c1c(-c1ccccc1)cn2-c1ccccc1 [F1386-0303, 5,7-diphenyl-7H-pyrrolo[2,3-d]pyrimidin-4-ol] | 100 | 84 | 108 | 97 | 114 | 103 | 95 | 111 | 104 | – | – | – | – | – | – | – | – | –
COCCOc1ccc(-c2cn(-c3ccccc3)c3nc[nH]c(=O)c23)cc1 [DMX-5804, 5-[4-(2-methoxy-ethoxy)-phenyl]-7-phenyl-3,7-dihydro-pyrrolo[2,3-d]pyrimidin-4-one] | 69 | 104 | 112 | 48 | 101 | 97 | 96 | 72 | 96 | – | – | – | – | – | – | – | – | –
